In PubChem BioAssay (NCI) one finds GI50 and TGI data, which are given here for 37 compounds.

Where “and” joins values, the source holds several entries; their conditions need not be identical. Equal values may be shown once.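 Values below derive from 48-hour exposures of cells grown in 96-well plates, with endpoints linearly interpolated between the two concentrations bracketing the appropriate inhibition level. Here, GI50 denotes the concentration required for 50% inhibition of growth. At the TGI there is no net growth.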 Starred links: 1 amine or outer side, 2 acyl side, 3 side chain; linkers in the order of their positions; H or OH if unused. Non-standard residues stand in square brackets, D forms with d. Residues, ends and D or L forms follow the SMILES beside them. *: point of attachment. X14 = C/C=C/CC(C)C(O)[C@H](N[*:1])C(=O)[*:2]; Decanoyl = CCCCCCCCCC(=O)*; Leu(ol) = CC(C)C[C@H](N)CO; Iva = CC[C@](C)(N)C(=O)O; Aib = CC(C)(N)C(=O)O

For the assay, the system named is MDA-MB-468 breast. The assay can be described thus: NCI tumour cell line growth inhibition, 48 h.
On to `FC(F)(F)c1ccc(-c2ncc(-c3ccc(C(F)(F)F)cc3)c(NCc3cc(C(F)(F)F)cc(C(F)(F)F)c3)n2)cc1`, for which the GI50 was 3.2 µM and the TGI turned out to be 15.5 µM.
The like results for `O=C(O)c1ccc(C(=O)O)c(C(=O)O)c1.[NH-]C1CCCCC1[NH-].[Pt+2]` were, in that order, 35.7 µM and greater than 100 µM.
The like results for `COc1ncc(-c2ccc3nccc(C#CCN4CCN(S(C)(=O)=O)CC4)c3c2)cc1NS(=O)(=O)c1ccc(F)cc1F` were, in that order, 0.0198 µM and 0.122 µM.
For `O=C1/C(=C\c2ccccc2)CN(C(=O)c2ccccc2)C/C1=C\c1ccccc1` the same measures were 1.69 µM and 3.56 µM.
Take `COc1cc(/C=C/C(=O)c2c(C)nc3ccccc3c2C)ccc1OCCCCOc1cc2c(cc1OC)C(=O)N1CCC[C@H]1C=N2`: the GI50 is 0.235 µM and the TGI turned out to be 0.625 µM.
The like results for `FC(F)(F)c1cc(-c2ncn(/C=C\c3nnco3)n2)cc(C(F)(F)F)c1` were, in that order, 0.0854 µM and 0.74 µM.
For `CN(CSc1ccc(Cl)cc1)c1ccc(CSc2ccc(Cl)cc2)cc1` the same measures were 1.85 µM and 5.07 µM.
On to `Oc1ccc(Cc2ccc(O)c(C3CC(c4ccc(Cl)cc4)=NN3)c2)cc1C1CC(c2ccc(Cl)cc2)=NN1` (centres undefined), for which the GI50 was 2.85 µM and the TGI was 9.44 µM.
The like results for `CN1CCN(c2ccc(Nc3nc(NCCNS(=O)(=O)c4ccc5ccccc5c4)c4sccc4n3)cc2)CC1` were, in that order, 2.83 µM and 12.2 µM.
The like results for `CCC(C)CC(C)C(=O)c1c(O)ccn(O)c1=O` (centres undefined) were, in that order, 2.1 µM and 9.47 µM.
For `CCC(C)(C)[C@H](NC(=O)[C@H]1CCCCN1C)C(=O)N(C)[C@H](C[C@@H](OC(C)=O)c1nc(C(=O)N[C@@H](Cc2ccccc2)C[C@H](C)C(=O)O)cs1)C(C)C` the same measures were less than 0.00167 µM and less than 0.00167 µM.
In the case of `Brc1ccc(Nc2nc3ccccc3nc2Nc2ccc(Br)cc2)cc1`, the GI50 is 0.365 µM and the TGI was 2.58 µM.
For `NCCCNc1nc2ccc(Cl)cc2c2c(=O)c3cc(F)ccc3sc12` the same measures were 2.9 µM and 10.1 µM.
For `CCCCN(CC)CCCCCCCCCCN1CCCc2cc(OC)ccc21` the same measures were 1.59 µM and 3.58 µM.
For `C/C=C/CC(C)C(O)[C@H](NC(=O)[C@@H]1CCCN1C(=O)C(C)(C)NC(=O)CCCCCCCCC)C(=O)N[C@@](C)(CC)C(=O)N[C@@H](CCC(N)=O)C(=O)N[C@H](CCC(N)=O)C(=O)NC(C)(C)C(=O)N[C@@](C)(CC)C(=O)N[C@@H](CCC(N)=O)C(=O)N[C@H](CC(C)C)C(=O)N[C@H](CO)CC(C)C` (stereo partly drawn) (Decanoyl-[Aib]P[X14][Iva]Q[dQ][Aib][Iva]Q[dL][Leu(ol)]) the same measures were 0.0329 µM and 0.26 µM.
Regarding `O=C1c2cccnc2C(=O)c2c1c(C(=O)OCCc1ccccn1)c1ccccn21`, the GI50 is 1.84 µM and the TGI was 5.06 µM.
For the compound `O=c1[nH]c(F)nc2c1ncn2C1OC(CO)C(O)C1O` (centres undefined), the GI50 is greater than 100 µM and the TGI was greater than 100 µM.
With `O=C(Nc1ccc(I)cc1)c1cccc([N+](=O)[O-])c1O`, the GI50 is 2.07 µM and the TGI came out at 7.4 µM.
Consider `COC(=O)[C@@H](C)C[C@H](Cc1ccccc1)NC(=O)c1csc([C@@H](C[C@H](C(C)C)N(C)C(=O)C2(NC(=O)[C@H]3CCCCN3C)CCC2)OC(C)=O)n1`, for which the GI50 is 0.00123 µM and 0.0025 µM; the TGI is greater than 25 µM.
With `CCOC(=O)[C@@H](C)C[C@H](Cc1ccccc1)NC(=O)c1csc([C@@H](C[C@H](C(C)C)N(C)C(=O)[C@@H](NC(=O)[C@H]2C[C@H](O)CCN2C)C(C)C)OC(C)=O)n1`, the GI50 is less than 0.00167 µM and the TGI is greater than 16.7 µM.
In the case of `CCCOc1ccc(/C=N/Nc2cc(C)nc3ccc(Cl)cc23)cc1`, the GI50 was 1.69 µM and the TGI amounted to 3.19 µM.
As for `O=C(Cc1ccc(Nc2ccnc(C(F)(F)F)c2)cc1)N/N=C/c1ccccc1O`, the GI50 is 3 µM and the TGI came to 39.3 µM.
Take `O=C(/C=C/c1cccc(S(=O)(=O)Nc2ccccc2)c1)NO`: the GI50 was 0.241 µM and the TGI stood at 5.36 µM.
For `CCN1C(=O)N(CC)C2C1NC(=S)N2/N=C/C=C/c1ccccc1OC` (centres undefined) the same measures were 0.0353 µM and 38.9 µM.
The like results for `O=Cc1ccc(-c2ccc(-c3ccc(C=O)o3)[se]2)o1` were, in that order, 22.6 µM and greater than 100 µM.
The like results for `Cc1[nH]c(C(=O)Nc2ccc(S(=O)(=O)N3CCCCC3)cc2OCCOCCOCCOCCOCCOCCOCCOCCOCCOc2cc(S(=O)(=O)N3CCCCC3)ccc2NC(=O)c2[nH]c(C)c3c2CCCCC3=O)c2c1C(=O)CCCC2` were, in that order, 0.191 µM and 0.794 µM.
As to `CC(C)OCc1cc(CN2CCN(c3cccc(Cl)c3)CC2)c(O)c2ncccc12`, the GI50 is 0.346 µM and the TGI was 1.67 µM.
The like results for `O=C(NS(=O)(=O)c1ccc(NC[C@H]2COCCO2)c([N+](=O)[O-])c1)c1ccc(N2CCN(CC3=C(c4ccc(Cl)cc4)CC4(CCC4)CC3)CC2)cc1Oc1cnc2[nH]ccc2c1` were, in that order, 1.79 µM and 4.35 µM.
As to `Cc1cc(C(O)(c2ccc(Nc3ccccc3)cc2)c2ccc(Nc3ccc(S(=O)(=O)O)cc3)cc2)ccc1N` (centres undefined), the GI50 was 0.48 µM and the TGI is 2.48 µM.
Consider `N#C/C(=C\c1ccc(F)cc1)n1nc2cccc(F)c2n1`, for which the GI50 is 3.05 µM and the TGI was greater than 100 µM.
In the case of `CCCCCCc1cc2cc(-c3csc(/C=C/c4ccccc4)n3)c(=O)oc2cc1O`, the GI50 was 6.1 µM and the TGI was determined as 28.7 µM.
The like results for `O=C1NC(=O)C(c2ccccc2)=C1Nc1ccccc1` were, in that order, greater than 25 µM and greater than 25 µM.
For `c1ccc(-c2cn(-c3ccccc3)c(-c3ccccc3)n2)cc1` the same measures were 10.1 µM and 30.5 µM.
The like results for `NC(=O)CCc1ccccc1Oc1nccc(-c2c(-c3ccc(F)cc3)ncn2C2CCNCC2)n1` were, in that order, 10 µM and greater than 25 µM.
With `COc1cc2c(cc1OCCCCn1c(-c3cccs3)nc3ccccc31)N=C[C@@H]1CCCN1C2=O`, the GI50 was 0.333 µM and the TGI was 1.6 µM.
For `NC(=N\N=C/c1ccc(Cl)cc1Cl)/C(N)=N\N=C/c1ccc(Cl)cc1Cl` the same measures were 6.87 µM and greater than 100 µM.
The like results for `COc1ccc(C2CC(c3ccc4ccccc4c3)=NN2c2nc(O)c(C3=c4cc(OC)ccc4=NC3=O)s2)cc1` (centres undefined) were, in that order, 0.0462 µM and 0.2 µM.
